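Test compounds were applied to cells in 96-well plates for 48 hours at 5 doses. GI50 marks 50% less growth. The concentration for full growth arrest is given as TGI.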
Assays:
Assay in all cases: DTP human tumour cell line panel, 48 h
OVCAR-5 ovarian = system: OVCAR-5 ovarian
LOX IMVI melanoma = system: LOX IMVI melanoma
SN12C renal = system: SN12C renal
BT-549 breast = system: BT-549 breast
SW-620 colon = system: SW-620 colon
SK-OV-3 ovarian = system: SK-OV-3 ovarian
CCRF-CEM leukemia = system: CCRF-CEM leukemia
HOP-92 NSCLC = system: HOP-92 NSCLC
COLO 205 colon = system: COLO 205 colon
NCI/ADR-RES ovarian = system: NCI/ADR-RES ovarian
HCT-116 colon = system: HCT-116 colon
U251 CNS = system: U251 CNS
UO-31 renal = system: UO-31 renal
HT29 colon = system: HT29 colon
KM12 colon = system: KM12 colon
NCI-H23 lung = system: NCI-H23 lung
SK-MEL-28 melanoma = system: SK-MEL-28 melanoma
SNB-75 CNS = system: SNB-75 CNS
RXF 393 renal = system: RXF 393 renal
PC-3 prostate = system: PC-3 prostate
MALME-3M melanoma = system: MALME-3M melanoma
HS 578T breast = system: HS 578T breast
SF-268 CNS = system: SF-268 CNS
SF-539 CNS = system: SF-539 CNS
MDA-MB-231 breast = system: MDA-MB-231 breast
A498 renal = system: A498 renal
SR leukemia = system: SR leukemia
OVCAR-4 ovarian = system: OVCAR-4 ovarian
IGROV1 ovarian = system: IGROV1 ovarian

For `CCC(=O)N1C/C(=C/c2ccc(Br)cc2)C(=O)/C(=C/c2ccc(Br)cc2)C1`, the TGI (OVCAR-5 ovarian) was 3.22 µM, the GI50 (LOX IMVI melanoma) was < 33.3 nM and the TGI (LOX IMVI melanoma) was 248 nM. The GI50 (SN12C renal) was 424 nM, the TGI (SN12C renal) was 1580 nM and the GI50 (BT-549 breast) was 653 nM. For the same compound, the TGI (BT-549 breast) was 1390 nM, the GI50 (SW-620 colon) was 220 nM and the TGI (SW-620 colon) was 820 nM. The GI50 (SK-OV-3 ovarian) was 1730 nM, the TGI (SK-OV-3 ovarian) was 5.98 µM and the GI50 (CCRF-CEM leukemia) was 880 nM. The TGI (CCRF-CEM leukemia) was 4.6 µM, the GI50 (HOP-92 NSCLC) was 1690 nM and the TGI (HOP-92 NSCLC) was 4.13 µM. It also gave a GI50 (COLO 205 colon) of 611 nM, a TGI (COLO 205 colon) of 1740 nM and a GI50 (NCI/ADR-RES ovarian) of 1360 nM. The TGI (NCI/ADR-RES ovarian) was 32.8 µM, the GI50 (HCT-116 colon) was < 41.7 nM and the TGI (HCT-116 colon) was 311 nM. It also gave a GI50 (U251 CNS) of 240 nM, a TGI (U251 CNS) of 763 nM and a GI50 (UO-31 renal) of 607 nM. For the same compound, the TGI (UO-31 renal) was 1500 nM, the GI50 (HT29 colon) was 102 nM and the TGI (HT29 colon) was 433 nM. The GI50 (KM12 colon) was 186 nM, the TGI (KM12 colon) was 553 nM and the GI50 (NCI-H23 lung) was 1310 nM. For the same compound, the TGI (NCI-H23 lung) was 3.46 µM, the GI50 (SK-MEL-28 melanoma) was 1530 nM and the TGI (SK-MEL-28 melanoma) was 3.13 µM. It also gave a GI50 (SNB-75 CNS) of 2340 nM, a TGI (SNB-75 CNS) of 9.71 µM and a GI50 (RXF 393 renal) of 220 nM. The TGI (RXF 393 renal) was 522 nM, the GI50 (PC-3 prostate) was 632 nM and the TGI (PC-3 prostate) was 2290 nM. The GI50 (MALME-3M melanoma) was 1690 nM, the TGI (MALME-3M melanoma) was 3.63 µM and the GI50 (HS 578T breast) was 644 nM. For the same compound, the TGI (HS 578T breast) was 4.12 µM, the GI50 (SF-268 CNS) was 902 nM and the TGI (SF-268 CNS) was 3.06 µM. It also gave a GI50 (SF-539 CNS) of 706 nM, a TGI (SF-539 CNS) of 1790 nM and a GI50 (MDA-MB-231 breast) of 760 nM. For the same compound, the TGI (MDA-MB-231 breast) was 2360 nM, the GI50 (A498 renal) was 1430 nM and the TGI (A498 renal) was 3.06 µM. For the same compound, the TGI (SR leukemia) was 1020 nM, the GI50 (OVCAR-4 ovarian) was 1010 nM and the TGI (OVCAR-4 ovarian) was 3.75 µM. The GI50 (IGROV1 ovarian) was 766 nM and the TGI (IGROV1 ovarian) was 2270 nM.

Reference: PubChem BioAssay (NCI)
